In ChEMBL document CHEMBL6096702, “Discovery of a Novel p38α-MK2 Complex Inhibitor as a Potential Choice for Autoimmune Diseases” (J Med Chem, 2025):
In brackets after ≈: the same amount, converted by molar mass. Activity calls are given as the source filed them. No cut-off for these calls is given here.

Assays:
[1] = Inhibition of N-terminal GST-tagged wildtype human P38alpha (4 to 152 residues) extracted from Escherichia coli/GST-tagged MK2 (unknown origin) assessed as reduction in HSP27 phosphorylation incubated for 2 hrs in presence of ATP and HSP27-FITC peptide by fluorescence polarization based IMAP assay
[2] = Selectivity ratio of IC50 for inhibition of N-terminal GST-tagged wildtype human P38alpha (4 to 152 residues) extracted from Escherichia coli/GST-tagged PRAK (unknown origin) to IC50 for inhibition of N-terminal GST-tagged wildtype human P38alpha (4 to 152 residues) extracted from Escherichia coli/GST-tagged MK2 (unknown origin)
[3] = Inhibition of N-terminal GST-tagged wildtype human P38alpha (4 to 152 residues) extracted from Escherichia coli/GST-tagged PRAK (unknown origin) assessed as reduction in HSP27 phosphorylation incubated for 2 hrs in presence of ATP and HSP27-FITC peptide by fluorescence polarization based IMAP assay
[4] = Volume of distribution at steady state in male Sprague-Dawley rat at 1 mg/kg, iv measured after 24 hrs by LC-MS/MS analysis; assay type: ADME, organism-based; settings: in vivo, read-out: Vdss
[5] = AUClast in male Sprague-Dawley rat at 1 mg/kg, iv measured after 24 hrs by LC-MS/MS analysis; assay type: ADME, organism-based; settings: in vivo
[6] = Cmax in male Sprague-Dawley rat at 2 mg/kg, po measured after 24 hrs by LC-MS/MS analysis; assay type: ADME, organism-based; settings: in vivo
[7] = Oral bioavailability in male Sprague-Dawley rat at 2 mg/kg measured after 24 hrs by LC-MS/MS analysis; assay type: ADME, organism-based; settings: in vivo
[8] = MRT in male Sprague-Dawley rat at 1 mg/kg, iv measured after 24 hrs by LC-MS/MS analysis; assay type: ADME, organism-based; settings: in vivo
[9] = Half-life in male Sprague-Dawley rat at 1 mg/kg, iv measured after 24 hrs by LC-MS/MS analysis; assay type: ADME, organism-based; settings: in vivo
[10] = Clearance in male Sprague-Dawley rat at 1 mg/kg, iv measured after 24 hrs by LC-MS/MS analysis; assay type: ADME, organism-based; settings: in vivo
[11] = AUClast in male Sprague-Dawley rat at 2 mg/kg, po measured after 24 hrs by LC-MS/MS analysis; assay type: ADME, organism-based; settings: in vivo
[12] = Cmax in male Beagle dog at 2 mg/kg, po measured after 24 hrs by LC-MS/MS analysis; assay type: ADME, organism-based, Canis lupus familiaris; settings: in vivo
Rattus norvegicus = experiment: Antiarthritic activity in Mycobacterium tuberculosis H37R-induced female Lewis rat model of arthritis assessed as reduction in paw inflammation at 3 mg/kg, po administered twice daily for 15 days starting from day 13 after adjuvant administration by micro-CT analysis; assay type: functional, organism-based; settings: time 15.0 day
[13] = AUC (0 to 24 hrs) in female Lewis rat at 1 mg/kg, po measured after 24 hrs by LC-MS/MS analysis; assay type: ADME, organism-based; settings: in vivo
PBMC [14] = experiment: Inhibition of LPS-induced TNF-alpha production in human PBMC cells at 0.01 to 10000 nM preincubated with compound for 1 hrs followed by LPS addition and measured after 4 hrs; assay type: functional, cell-based; settings: dose 0.01-10000 nM, time 5.0 hrs
[15] = Solubility of compound in PBS at pH 7.4 measured after 4 to 24 hrs by LC-MS analysis; assay type: physicochemical; settings: time 4-24 hrs
[16] = Half-life in female Lewis rat at 3 mg/kg, po measured after 24 hrs by LC-MS/MS analysis; assay type: ADME, organism-based; settings: in vivo
[17] = Cmax in female Lewis rat at 3 mg/kg, po measured after 24 hrs by LC-MS/MS analysis; assay type: ADME, organism-based; settings: in vivo
[18] = Half-life in female Lewis rat at 1 mg/kg, po measured after 24 hrs by LC-MS/MS analysis; assay type: ADME, organism-based; settings: in vivo
PBMC [19] = experiment: Inhibition of LPS-induced IL-8 production in human PBMC cells at 0.01 to 10000 nM preincubated with compound for 1 hrs followed by LPS addition and measured after 4 hrs; assay type: functional, cell-based; settings: dose 0.01-10000 nM, time 5.0 hrs
PBMC [20] = experiment: Inhibition of LPS-induced IL-6 production in human PBMC cells at 0.01 to 10000 nM preincubated with compound for 1 hrs followed by LPS addition and measured after 4 hrs; assay type: functional, cell-based; settings: dose 0.01-10000 nM, time 5.0 hrs
[21] = Volume of distribution at steady state in male Beagle dog at 1 mg/kg, iv measured after 24 hrs by LC-MS/MS analysis; assay type: ADME, organism-based, Canis lupus familiaris; settings: in vivo, read-out: Vdss
[22] = Oral bioavailability in male Beagle dog at 2 mg/kg measured after 24 hrs by LC-MS/MS analysis; assay type: ADME, organism-based, Canis lupus familiaris; settings: in vivo
[23] = AUC (0 to 24 hrs) in female Lewis rat at 3 mg/kg, po measured after 24 hrs by LC-MS/MS analysis; assay type: ADME, organism-based; settings: in vivo
[24] = Clearance in male Beagle dog at 1 mg/kg, iv measured after 24 hrs by LC-MS/MS analysis; assay type: ADME, organism-based, Canis lupus familiaris; settings: in vivo
[25] = Cmax in female Lewis rat at 1 mg/kg, po measured after 24 hrs by LC-MS/MS analysis; assay type: ADME, organism-based; settings: in vivo
[26] = AUClast in male Beagle dog at 2 mg/kg, po measured after 24 hrs by LC-MS/MS analysis; assay type: ADME, organism-based, Canis lupus familiaris; settings: in vivo
[27] = MRT in male Beagle dog at 1 mg/kg, iv measured after 24 hrs by LC-MS/MS analysis; assay type: ADME, organism-based, Canis lupus familiaris; settings: in vivo
[28] = Half-life in male Beagle dog at 1 mg/kg, iv measured after 24 hrs by LC-MS/MS analysis; assay type: ADME, organism-based, Canis lupus familiaris; settings: in vivo
[29] = AUClast in male Beagle dog at 1 mg/kg, iv measured after 24 hrs by LC-MS/MS analysis; assay type: ADME, organism-based, Canis lupus familiaris; settings: in vivo

Cc1cnc(-c2ccnc(C(C)(C)O)n2)cc1-n1c(C)cc(O[C@@H](C)c2ncc(F)cc2F)c(Cl)c1=O
IC50 [1]: > 1 µM

Cc1cnc(-c2ccnc(C(C)(C)O)n2)cc1-c1c(C)c(Cl)c(OCc2ncc(F)cc2F)c[n+]1[O-]
IC50 [1]: > 10 µM

Cc1cnc(-c2ccnc(C(C)(C)O)n2)cc1-c1c(C)cc(OCc2ncc(F)cc2F)c(Cl)c1F
IC50 [1]: > 10 µM

Cc1cnc(-c2cccc(C(C)(C)O)n2)cc1-n1c(C)cc(OCc2ncc(F)cc2F)c(Cl)c1=O
IC50 [1]: 0.003 µM | Ratio IC50 [2]: 333 | IC50 [3]: 0.999 µM

Cc1cnc(-c2ccnc(C(C)(C)O)n2)cc1N1CCC(OCc2ncc(F)cc2F)CC1=O (stereo unspecified)
IC50 [1]: > 10 µM

Cc1cnc(-c2ccnc(C(C)(C)O)n2)cc1-c1c(C)cc(OCc2ncc(F)cc2F)c[n+]1[O-]
IC50 [1]: > 10 µM

Cc1cnc(-c2cccc(C(C)(C)O)c2)c(F)c1-n1c(C)cc(OCc2ncc(F)cc2F)c(Cl)c1=O
Vd [4]: 0.7 L/kg | AUC(0-t) at 24 h [5]: 1800 ng·h/mL | Cmax [6]: 738 ng/mL | bioavailability [7]: 55% | IC50 [1]: 0.0005 µM | MRT [8]: 1.2 h | Ratio IC50 [2]: 1010 | half-life [9]: 1.5 h | clearance [10]: 10 mL/min/kg | IC50 [3]: 0.506 µM | AUC(0-t) at 24 h [11]: 1980 ng·h/mL

Cc1cnc(-c2ccnc(C(C)(C)O)n2)c(F)c1-n1c(C)cc(OCc2ncc(F)cc2F)c(C)c1=O
Vd [4]: 0.9 L/kg | AUC(0-t) at 24 h [5]: 1170 ng·h/mL | Cmax [6]: 496 ng/mL | bioavailability [7]: 56% | IC50 [1]: 0.004 µM | MRT [8]: 1.1 h | Ratio IC50 [2]: 1330 | half-life [9]: 0.9 h | clearance [10]: 13.9 mL/min/kg | IC50 [3]: 5.32 µM | AUC(0-t) at 24 h [11]: 1310 ng·h/mL

Cc1cnc(-c2cccc(C(C)(C)O)c2Cl)c(F)c1-n1c(C)cc(OCc2ncc(F)cc2F)c(Cl)c1=O
IC50 [1]: 0.006 µM

C=Cc1c(O[C@@H](C)c2ncc(F)cc2F)cc(C)n(-c2c(C)cnc(-c3ccnc(C(C)(C)O)n3)c2F)c1=O
IC50 [1]: 0.034 µM

Cc1ccc(C(C)(C)O)cc1-c1ncc(C)c(-n2c(C)cc(OCc3ncc(F)cc3F)c(Cl)c2=O)c1F
IC50 [1]: 0.062 µM

Cc1cnc(-c2cccc(C(C)(C)O)c2)cc1-n1c(C)cc(OCc2ncc(F)cc2F)c(Cl)c1=O
IC50 [1]: 0.0053 µM | Ratio IC50 [2]: 368 | IC50 [3]: 1.95 µM

Cc1cnc(-c2ccnc(C(C)(C)O)n2)cc1-n1c(C)cc(OC2CN(c3ncc(F)cc3F)C2)c(Cl)c1=O
IC50 [1]: 0.284 µM

Cc1cnc(-c2ccnc(C(C)(C)O)n2)cc1-n1ncc(OCc2ncc(F)cc2F)c(Cl)c1=O
IC50 [1]: 1.15 µM

Cc1cnc(-c2ccnc(C(C)(C)O)n2)cc1-c1c(C)cc(OCc2ncc(F)cc2F)c(Cl)[n+]1[O-]
IC50 [1]: 0.0839 µM

Cc1cnc(-c2ccnc(C(C)(C)O)n2)c(F)c1-n1c(C)cc(O[C@@H](C)c2ncc(F)cc2F)c(C(C)C)c1=O
IC50 [1]: 0.092 µM

Cc1cnc(-c2cc(C(C)(C)O)ccc2F)c(F)c1-n1c(C)cc(OCc2ncc(F)cc2F)c(Cl)c1=O
IC50 [1]: 0.0172 µM | Ratio IC50 [2]: 0.2 | IC50 [3]: 0.0029 µM

Cc1cnc(-c2ccnc(C(C)(C)O)n2)cc1-n1c(C)cc(OCc2ncc(F)cc2F)c(Cl)c1=O [ZUNSEMETINIB]
Vd [4]: 0.8 L/kg | AUC(0-t) at 24 h [5]: 1280 ng·h/mL | Cmax [12]: 587 ng/mL | Activity (Rattus norvegicus): inactive | AUC(0-t) at 24 h [13]: 682 ng·h/mL | Cmax [6]: 415 ng/mL | bioavailability [7]: 71% | IC50 [1]: 0.0066 µM | inhibition (PBMC [14]): Active | solubility [15]: 5.6 µg/mL (≈ 10.9 µM) | half-life [16]: 1.6 h | Cmax [17]: 781 ng/mL | half-life [18]: 1.9 h | inhibition (PBMC [19]): Active | inhibition (PBMC [20]): Active | MRT [8]: 1.1 h | Vd [21]: 1.5 L/kg | bioavailability [22]: 73% | AUC(0-t) at 24 h [23]: 2520 ng·h/mL | clearance [24]: 7.5 mL/min/kg | Ratio IC50 [2]: 971 | half-life [9]: 1.1 h | Cmax [25]: 217 ng/mL | AUC(0-t) at 24 h [26]: 3230 ng·h/mL | clearance [10]: 13.1 mL/min/kg | MRT [27]: 3.4 h | IC50 [3]: 6.41 µM | half-life [28]: 3.4 h | AUC(0-t) at 24 h [29]: 2230 ng·h/mL | AUC(0-t) at 24 h [11]: 1830 ng·h/mL

CCc1c(O[C@@H](C)c2ncc(F)cc2F)cc(C)n(-c2c(C)cnc(-c3ccnc(C(C)(C)O)n3)c2F)c1=O
IC50 [1]: 0.004 µM

Cc1cnc(-c2ccnc(C(C)(C)O)n2)cc1-n1c(C)cc(SCc2ncc(F)cc2F)c(Cl)c1=O
IC50 [1]: 0.0226 µM

Cc1cnc(-c2ccnc(C(C)(C)O)n2)nc1-n1c(C)cc(OCc2ncc(F)cc2F)c(Cl)c1=O
IC50 [1]: > 10 µM
